Assay results reported in patent US20170298056A1, “SMALL MOLECULE INHIBITORS OF HIV-1 ENTRY AND METHODS OF USE THEREOF” (Dana-Farber Cancer Institute, Inc., priority 2014, published 2017).

What was measured:
Cf2Th-CD4/CCR5 cells = assay: Viability assay (CellTiterGlo), CD4/CCR5-expressing target cells; assay type: cell-based; details: read-out: half-maximal cytotoxic concentration (CC50)
Protocol: Viability Assay. As part of the secondary screen, cells were incubated for ˜20 hours in 384-well plates in a final volume of 45 μl growth medium at 37° C. The plate was equilibrated to room temperature, 15 μl of CellTiterGlo (Promega) was added to each well and luminescence was measured as described above. The viability assay with 18A was done in parallel to the viral infection assay for the same length of time. 18A was diluted using an HP D300 Digital Dispenser in a 96-well B&W isoplate and cells were added. After incubation of 26-30 hours (Cf2Th cells) or 40-44 hours (PBMC). 30 μl (Cf2Th cells) or 100 μl (PBMC) of CellTiterGlo was added and luminescence was measured as described above.

[1] = system: HIV-1JR-FLΔCT Env trimer (gp41 HR1); assay: CD4-induced gp41 HR1 exposure, C34-Ig binding (flow cytometry); details: 100 μM 18A prior to sCD4 addition; approx. 37% with sCD4 alone
Protocol: Flow cytometry. […] After 48-72 hours, cells were detached with 5 mM EDTA/PBS and between 0.5-1 million cells were briefly incubated with various concentrations of 18A and then with or without the indicated concentrations of sCD4. C34-Ig (at a final concentration of 20 μg/ml) or a specified antibody (at final concentration of 1 μg/ml) was added to the cells. […] Cells were washed twice and analyzed with a BD FACSCanto II flow cytometer (BD Biosciences). For analysis of resistant mutants (FIG. 5e-g), the measurements were normalized for the level of sCD4 binding of each mutant, and the response of each mutant was further normalized to that of the wild-type HIV-1JR-FL E168K+N188AΔCT Env (herein designated WTKA). […] The sCD4 IC50/sCD4 binding ratio (FIGS. 4c and e) was calculated as follows. Binding of sCD4 to different envelope mutants was measured by flow cytometry and normalized first to 2G12 binding to account for potentially different Env expression levels, and then to sCD4 binding to the wild-type HIV-1JR-FL Env. The IC50 of sCD4 for inhibition of virus infection by each mutant Env was divided by the normalized sCD4 binding to Env-expressing cells to calculate the sCD4 IC50/sCD4 binding value.

[2] = system: HXBc2-YU2 Chimeras (CCR5-tropic); assay: Viral infection assay, HXBc2-YU2 chimeras (CCR5-tropic); assay type: cell-based, HIV-1
Protocol: Production of recombinant HIV-1 expressing luciferase. […] After 48 hours, the supernatant was collected, buffered with 50 mM Hepes pH 7.4 (final concentration) and centrifuged for 5 minutes at 750×g and 4° C. The virus-containing supernatant was used directly or frozen at −80° C.
Viral infection assay. Each test compound was serially diluted in DMSO in a 96-well B&W isoplate (PerkinElmer, Boston, Mass.) using an HP D300 Digital Dispenser, to a final volume of 450 nl. DMSO was used as a control. Viruses pseudotyped with a specific Env were added to each well and incubated briefly at room temperature. Cf2Th-CD4/CCR5 cells were detached with StemPro Accutase Cell Dissociation Reagent (Invitrogen, cat #A11105-01), washed once, and 5000 cells were added to each well. […] Following incubation, the medium was aspirated and cells were lysed with 30 μl of Passive Lysis Buffer (Promega, cat #E1941). The activity of the firefly luciferase, which was used as a reporter protein in the system, was measured with a Centro LB 960 luminometer (Berthold Technologies, Oak Ridge, Tenn.). One hundred microliters of assay buffer (15 mM MgSO4, 15 mM KH2PO4/K2HPO4 pH 7.8, 1 mM ATP and 1 mM DTT) was injected to each well, followed by a 50 μl injection of 1 mM Dluciferin potassium salt (BD Pharmingen, San Jose, Calif.); luminescence was measured for 2 sec. […]

In the case of `O=C(N/N=C/c1ccc(O)cc1)Nc1cccc2nsnc12` [Compound 18A], the CC50 (Cf2Th-CD4/CCR5 cells) is reported as 44 µM, the “cells binding C34-Ig” value [1] is reported as 4.7% and the IC50 ([2]; HXBc2 (YU2 V3) chimera) is reported as 20.2 ± 2.2 µM. The IC50 ([2]; HXBc2 (YU2 V123) chimera) was 12.5 ± 1.6 µM.
